Reference: patent publication EP4748842A1, “CAMPTOTHECIN COMPOUND, ANTIBODY DRUG CONJUGATE, AND PREPARATION METHOD THEREFOR AND USE THEREOF” (Shanghai Pharmaceuticals Holding Co., Ltd., priority 2023, dated 2025)
Where two headings read alike, the source gives them in different places.

Assays:
Assay in all cases: CTG assay, effect on proliferation ability of tumor cells
Type in all cases: cell-based, human
[1] = system: Calu-3; conditions: Calu-3, 168 h, read-out: IC50 (nM) Calu-3
Procedure: (§1) Test method for the effect of camptothecin on the proliferation ability of tumor cells: The effect of camptothecin derivatives K1, K2, K3, K4, K5, K6, K7, K8, and K9 on the proliferation ability of tumor cells was tested using the CTG assay. Test cells (see Table 1) were digested, resuspended, and counted. The supernatant was removed by centrifugation, and the cell density was adjusted. Cell counting was performed with a cell counter: 20 µl of the cell suspension was aspirated, mixed with 20 µl of trypan blue, and 20 µl of the mixture was taken for cell counting. Cells were seeded into 96-well cell culture plates respectively, with 180 µl added to each well, and 1000 cells were plated per well. The plate was tapped gently to mix, and then placed in a 37°C cell incubator for incubation for 16 hours. Compounds were diluted with McCoy's 5A medium, and 20 µl was added to each well to achieve a maximum concentration of 100 nM, followed by 3-fold serial dilution with 10 concentration points. DMSO was used as the vehicle control, and 20 µl of McCoy's 5A medium was added to the blank control. The plate was tapped gently to mix, and then placed in a 37°C cell incubator for incubation for 7 days. After 7 days of incubation, the cell plate was taken out of the incubator, the culture medium was aspirated, 20 µl of culture medium was added to each well, and then 20 µl of CTG was added to each well. The plate was shaken on a shaker for 5 min and incubated at room temperature for 10 min. Then, 30 µl of the reaction solution was transferred to a Viewplate-96 white microplate (transparent bottom), and data analysis was performed on an EnVision microplate reader. [formula] Table 1. Overview of cell lines used in this screening

[2] = system: HCT-116; conditions: HCT-116, 168 h, read-out: IC50 (nM) HCT-116
Procedure: as §1

[3] = system: NCI-N87; conditions: NCI-N87, 168 h, read-out: IC50 (nM) NCI-N87
Procedure: as §1

[4] = human lung adenocarcinoma cells, 7 days incubation, CTG
[5] = human colon cancer cells, 7 days incubation, CTG
[6] = human gastric cancer cells, 7 days incubation, CTG

Question: Which results are given for `CC[C@@]1(O)C(=O)OCc2c1cc1n(c2=O)Cc2c-1nc1cc(F)c(C)cc1c2-c1cn(CCO)nn1` [Compound K1]?
Answer: IC50 ([1]; Homo sapiens): 0.22 nM; IC50 ([2]; Homo sapiens): 0.77 nM; IC50 ([3]; Homo sapiens): 1.89 nM

Question: Which results are given for `CC[C@@]1(O)C(=O)OCc2c1cc1n(c2=O)Cc2c-1nc1cc(F)c(C)cc1c2-c1cn(CCCO)nn1` [Compound K2]?
Answer: IC50 [1, 4]: 0.29 nM; IC50 [2, 5]: 0.89 nM; IC50 [3, 6]: 2.21 nM

Question: What does the source list for `CC[C@@]1(O)C(=O)OCc2c1cc1n(c2=O)Cc2c-1nc1cc(F)c(C)cc1c2-c1cn(CCCCO)nn1` [Compound K3]?
Answer: IC50 [1, 4]: 0.43 nM; IC50 [2, 5]: 1.36 nM; IC50 [3, 6]: 3.11 nM

Question: Which results are given for `CC[C@@]1(O)C(=O)OCc2c1cc1n(c2=O)Cc2c-1nc1cc(F)c(C)cc1c2-c1cnn(CCO)c1` [Compound K4]?
Answer: IC50 ([1]; Homo sapiens): 0.15 nM; IC50 ([2]; Homo sapiens): 0.42 nM; IC50 ([3]; Homo sapiens): 1.72 nM

Question: Which IC50 [1, 4] does the source give for `CC[C@@]1(O)C(=O)OCc2c1cc1n(c2=O)Cc2c-1nc1cc(F)c(C)cc1c2-c1cnn(CCCO)c1` [Compound K5] here?
Answer: 0.18 nM

Question: What about the IC50 [2, 5] of the same molecule?
Answer: 0.35 nM

Question: And the IC50 [3, 6]?
Answer: 2.07 nM

Question: `CC[C@@]1(O)C(=O)OCc2c1cc1n(c2=O)Cc2c-1nc1cc(F)c(C)cc1c2-c1cnn(CCCCO)c1` [Compound K6] was tested. Which IC50 [1, 4] did it give?
Answer: 0.28 nM

Question: And the IC50 [2, 5]?
Answer: 0.78 nM

Question: What about the IC50 [3, 6] of the same molecule?
Answer: 2.88 nM

Question: Which IC50 [1, 4] does the source give for `CC[C@@]1(O)C(=O)OCc2c1cc1n(c2=O)Cc2c-1nc1cc(F)c(C)cc1c2-c1ccn(CCO)n1` [Compound K7] here?
Answer: 1.13 nM

Question: And the IC50 [2, 5]?
Answer: 2.24 nM

Question: And the IC50 [3, 6]?
Answer: 5.34 nM

Question: What does the source list for `CC[C@@]1(O)C(=O)OCc2c1cc1n(c2=O)Cc2c-1nc1cc(F)c(C)cc1c2-c1ccn(CCCO)n1` [Compound K8]?
Answer: IC50 [1, 4]: 1.24 nM; IC50 [2, 5]: 3.21 nM; IC50 [3, 6]: 6.76 nM

Question: For `CC[C@@]1(O)C(=O)OCc2c1cc1n(c2=O)Cc2c-1nc1cc(F)c(C)cc1c2-c1ccn(CCCCO)n1` [Compound K9], which IC50 [1, 4] is on record?
Answer: 1.89 nM

Question: What about the IC50 [2, 5] of the same molecule?
Answer: 3.87 nM

Question: And the IC50 [3, 6]?
Answer: 7.82 nM
